Data reported in article PMC8800111 (The Journal of Biological Chemistry, 2021).

Tests used:
Format in all cases: cell-based
[1] = molecular target: proteins of U3A human fibrosarcoma cells (4462 proteins detected) (Homo sapiens, UniProt Q9BSJ8); conditions: protein ESYT1; U3A cells
[2] = molecular target: proteins of U3A human fibrosarcoma cells (4462 proteins detected) (Homo sapiens, UniProt Q9UBV8); conditions: protein PEF1; U3A, 10 μM, 2 h
[3] = molecular target: proteins of U3A human fibrosarcoma cells (4462 proteins detected) (Homo sapiens, UniProt Q9NT62); conditions: protein ATG3; soluble abundance after heat, U3A cells
[4] = molecular target: proteins of U3A human fibrosarcoma cells (4462 proteins detected) (Homo sapiens, UniProt Q9Y385); conditions: protein UBE2J1; U3A cells
[5] = molecular target: proteins of U3A human fibrosarcoma cells (4462 proteins detected) (Homo sapiens, UniProt P27816); conditions: protein MAP4, U3A cells
[6] = molecular target: proteins of U3A human fibrosarcoma cells (4462 proteins detected) (Homo sapiens, UniProt Q06546); conditions: protein GABPA; U3A cells
[7] = molecular target: proteins of U3A human fibrosarcoma cells (4462 proteins detected) (Homo sapiens, UniProt O43402); conditions: protein EMC8; soluble abundance after heat, U3A cells
[8] = molecular target: proteins of U3A human fibrosarcoma cells (4462 proteins detected) (Homo sapiens, UniProt O76061); conditions: protein STC2; U3A cells
[9] = molecular target: proteins of U3A human fibrosarcoma cells (4462 proteins detected) (Homo sapiens, UniProt A0MZ66); conditions: protein KIAA1598; U3A, 10 μM, 2 h
[10] = molecular target: proteins of U3A human fibrosarcoma cells (4462 proteins detected) (Homo sapiens, UniProt P11717); conditions: protein IGF2R; soluble abundance after heat, U3A cells
[11] = molecular target: proteins of U3A human fibrosarcoma cells (4462 proteins detected) (Homo sapiens, UniProt P36543); conditions: protein ATP6V1E1; soluble abundance after heat, U3A cells
[12] = molecular target: proteins of U3A human fibrosarcoma cells (4462 proteins detected) (Homo sapiens, UniProt O60341); conditions: protein KDM1A; soluble abundance after heat, U3A cells
[13] = molecular target: proteins of U3A human fibrosarcoma cells (4462 proteins detected) (Homo sapiens, UniProt P26447); conditions: protein S100A4; U3A, 10 μM, 2 h
[14] = molecular target: proteins of U3A human fibrosarcoma cells (4462 proteins detected) (Homo sapiens, UniProt Q9Y6E0); conditions: protein STK24; soluble abundance after heat, U3A cells
[15] = molecular target: proteins of U3A human fibrosarcoma cells (4462 proteins detected) (Homo sapiens, UniProt Q9UIS9); conditions: protein MBD1; U3A cells
[16] = molecular target: proteins of U3A human fibrosarcoma cells (4462 proteins detected) (Homo sapiens, UniProt P43243); conditions: protein MATR3; soluble abundance after heat, U3A cells
[17] = molecular target: proteins of U3A human fibrosarcoma cells (4462 proteins detected) (Homo sapiens, UniProt Q14651); conditions: protein PLS1; U3A cells
[18] = molecular target: proteins of U3A human fibrosarcoma cells (4462 proteins detected) (Homo sapiens, UniProt Q9UNX4); conditions: protein WDR3; U3A cells
[19] = molecular target: proteins of U3A human fibrosarcoma cells (4462 proteins detected) (Homo sapiens, UniProt Q8TBZ3); conditions: protein WDR20, U3A cells
[20] = molecular target: proteins of U3A human fibrosarcoma cells (4462 proteins detected) (Homo sapiens, UniProt O15498); conditions: protein YKT6; U3A, 10 μM, 2 h
[21] = molecular target: proteins of U3A human fibrosarcoma cells (4462 proteins detected) (Homo sapiens, UniProt Q9GZV4); conditions: protein EIF5A2; U3A, 10 μM, 2 h
[22] = molecular target: proteins of U3A human fibrosarcoma cells (4462 proteins detected) (Homo sapiens, UniProt P51532); conditions: protein SMARCA4; U3A cells
[23] = molecular target: proteins of U3A human fibrosarcoma cells (4462 proteins detected) (Homo sapiens, UniProt Q03188); conditions: protein CENPC, U3A cells
[24] = molecular target: proteins of U3A human fibrosarcoma cells (4462 proteins detected) (Homo sapiens, UniProt P52272); conditions: protein HNRNPM; U3A cells
[25] = molecular target: proteins of U3A human fibrosarcoma cells (4462 proteins detected) (Homo sapiens, UniProt P35250); conditions: protein RFC2; U3A cells
[26] = molecular target: proteins of U3A human fibrosarcoma cells (4462 proteins detected) (Homo sapiens, UniProt Q9HAS0); conditions: protein C17orf75; U3A cells
[27] = molecular target: proteins of U3A human fibrosarcoma cells (4462 proteins detected) (Homo sapiens, UniProt P17987); conditions: protein TCP1; U3A cells
[28] = molecular target: proteins of U3A human fibrosarcoma cells (4462 proteins detected) (Homo sapiens, UniProt Q9HC38); conditions: protein GLOD4, U3A cells
[29] = molecular target: proteins of U3A human fibrosarcoma cells (4462 proteins detected) (Homo sapiens, UniProt Q13162); conditions: protein PRDX4; U3A cells
[30] = molecular target: proteins of U3A human fibrosarcoma cells (4462 proteins detected) (Homo sapiens, UniProt Q969G3); conditions: protein SMARCE1, U3A cells
proteins of U3A human fibrosarcoma cells (4462 proteins detected) (Homo sapiens, UniProt Q969G3), sequence (Q969G3 whole entry): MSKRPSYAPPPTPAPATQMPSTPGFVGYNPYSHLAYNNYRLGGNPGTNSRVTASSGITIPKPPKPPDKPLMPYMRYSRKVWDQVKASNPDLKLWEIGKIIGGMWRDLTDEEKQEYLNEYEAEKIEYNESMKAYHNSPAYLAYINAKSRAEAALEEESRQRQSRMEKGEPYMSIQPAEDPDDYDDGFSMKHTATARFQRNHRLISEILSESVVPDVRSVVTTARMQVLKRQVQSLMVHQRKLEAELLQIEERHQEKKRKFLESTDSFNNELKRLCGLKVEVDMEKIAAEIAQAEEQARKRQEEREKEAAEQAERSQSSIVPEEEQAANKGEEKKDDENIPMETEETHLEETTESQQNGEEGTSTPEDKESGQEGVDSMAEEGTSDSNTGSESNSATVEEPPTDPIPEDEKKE

proteins of U3A human fibrosarcoma cells (4462 proteins detected) (Homo sapiens, UniProt Q9NT62), sequence (Q9NT62 whole entry): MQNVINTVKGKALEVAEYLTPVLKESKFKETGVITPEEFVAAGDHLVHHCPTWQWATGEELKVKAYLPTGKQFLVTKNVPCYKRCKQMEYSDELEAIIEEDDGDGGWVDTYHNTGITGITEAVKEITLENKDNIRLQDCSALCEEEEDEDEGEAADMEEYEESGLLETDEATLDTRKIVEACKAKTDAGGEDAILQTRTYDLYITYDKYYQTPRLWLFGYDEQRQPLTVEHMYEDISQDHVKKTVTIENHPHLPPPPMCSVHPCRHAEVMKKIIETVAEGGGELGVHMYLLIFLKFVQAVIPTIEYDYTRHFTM
proteins of U3A human fibrosarcoma cells (4462 proteins detected) (Homo sapiens, UniProt P36543), sequence (P36543 whole entry): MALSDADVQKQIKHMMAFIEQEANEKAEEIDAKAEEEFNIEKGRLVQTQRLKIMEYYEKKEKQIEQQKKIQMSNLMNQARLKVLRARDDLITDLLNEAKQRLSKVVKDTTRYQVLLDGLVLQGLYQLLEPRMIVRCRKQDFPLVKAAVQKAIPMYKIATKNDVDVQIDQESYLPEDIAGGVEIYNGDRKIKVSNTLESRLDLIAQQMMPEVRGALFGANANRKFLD
proteins of U3A human fibrosarcoma cells (4462 proteins detected) (Homo sapiens, UniProt P35250), sequence (P35250 whole entry): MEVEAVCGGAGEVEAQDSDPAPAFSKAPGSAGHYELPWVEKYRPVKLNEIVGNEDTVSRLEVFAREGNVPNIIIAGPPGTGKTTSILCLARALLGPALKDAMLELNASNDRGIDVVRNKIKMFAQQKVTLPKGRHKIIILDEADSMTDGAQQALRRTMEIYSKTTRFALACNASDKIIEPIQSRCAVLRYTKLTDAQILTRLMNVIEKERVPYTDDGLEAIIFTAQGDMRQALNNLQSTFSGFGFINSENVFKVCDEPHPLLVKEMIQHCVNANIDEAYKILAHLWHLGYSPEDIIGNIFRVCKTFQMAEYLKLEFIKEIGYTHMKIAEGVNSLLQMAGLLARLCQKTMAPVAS
proteins of U3A human fibrosarcoma cells (4462 proteins detected) (Homo sapiens, UniProt Q9Y385), sequence (Q9Y385 whole entry): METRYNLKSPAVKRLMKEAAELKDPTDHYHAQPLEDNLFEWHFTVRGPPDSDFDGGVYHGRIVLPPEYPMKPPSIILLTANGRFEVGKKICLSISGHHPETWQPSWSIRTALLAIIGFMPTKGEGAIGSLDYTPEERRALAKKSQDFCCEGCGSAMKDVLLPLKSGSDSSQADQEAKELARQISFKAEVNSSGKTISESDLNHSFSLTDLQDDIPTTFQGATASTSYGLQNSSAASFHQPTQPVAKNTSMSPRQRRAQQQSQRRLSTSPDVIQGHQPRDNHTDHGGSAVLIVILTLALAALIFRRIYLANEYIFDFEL
proteins of U3A human fibrosarcoma cells (4462 proteins detected) (Homo sapiens, UniProt Q13162), sequence (Q13162 38-271): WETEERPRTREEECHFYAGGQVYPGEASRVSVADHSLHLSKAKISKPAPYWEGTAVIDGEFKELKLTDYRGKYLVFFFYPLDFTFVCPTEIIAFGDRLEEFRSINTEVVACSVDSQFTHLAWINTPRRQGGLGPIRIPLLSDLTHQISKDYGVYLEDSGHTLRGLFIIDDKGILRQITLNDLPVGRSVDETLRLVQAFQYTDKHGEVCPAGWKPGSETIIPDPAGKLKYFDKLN
proteins of U3A human fibrosarcoma cells (4462 proteins detected) (Homo sapiens, UniProt Q14651), sequence (Q14651 whole entry): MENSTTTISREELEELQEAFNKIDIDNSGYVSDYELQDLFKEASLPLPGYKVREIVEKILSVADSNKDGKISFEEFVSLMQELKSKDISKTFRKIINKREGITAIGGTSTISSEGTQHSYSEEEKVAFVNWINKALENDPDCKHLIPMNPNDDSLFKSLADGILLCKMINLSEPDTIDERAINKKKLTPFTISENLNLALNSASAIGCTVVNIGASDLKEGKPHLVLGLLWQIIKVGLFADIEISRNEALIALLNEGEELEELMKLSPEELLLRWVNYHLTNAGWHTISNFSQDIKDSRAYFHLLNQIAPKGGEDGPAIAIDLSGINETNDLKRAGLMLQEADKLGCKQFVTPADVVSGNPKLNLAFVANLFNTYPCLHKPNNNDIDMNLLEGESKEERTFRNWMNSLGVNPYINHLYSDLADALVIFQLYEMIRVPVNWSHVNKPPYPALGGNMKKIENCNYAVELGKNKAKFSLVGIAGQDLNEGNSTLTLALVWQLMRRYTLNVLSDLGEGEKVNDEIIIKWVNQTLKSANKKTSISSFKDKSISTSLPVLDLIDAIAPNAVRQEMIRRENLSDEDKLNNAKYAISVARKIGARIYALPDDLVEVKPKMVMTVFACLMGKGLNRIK
proteins of U3A human fibrosarcoma cells (4462 proteins detected) (Homo sapiens, UniProt Q9UIS9), sequence (Q9UIS9 whole entry): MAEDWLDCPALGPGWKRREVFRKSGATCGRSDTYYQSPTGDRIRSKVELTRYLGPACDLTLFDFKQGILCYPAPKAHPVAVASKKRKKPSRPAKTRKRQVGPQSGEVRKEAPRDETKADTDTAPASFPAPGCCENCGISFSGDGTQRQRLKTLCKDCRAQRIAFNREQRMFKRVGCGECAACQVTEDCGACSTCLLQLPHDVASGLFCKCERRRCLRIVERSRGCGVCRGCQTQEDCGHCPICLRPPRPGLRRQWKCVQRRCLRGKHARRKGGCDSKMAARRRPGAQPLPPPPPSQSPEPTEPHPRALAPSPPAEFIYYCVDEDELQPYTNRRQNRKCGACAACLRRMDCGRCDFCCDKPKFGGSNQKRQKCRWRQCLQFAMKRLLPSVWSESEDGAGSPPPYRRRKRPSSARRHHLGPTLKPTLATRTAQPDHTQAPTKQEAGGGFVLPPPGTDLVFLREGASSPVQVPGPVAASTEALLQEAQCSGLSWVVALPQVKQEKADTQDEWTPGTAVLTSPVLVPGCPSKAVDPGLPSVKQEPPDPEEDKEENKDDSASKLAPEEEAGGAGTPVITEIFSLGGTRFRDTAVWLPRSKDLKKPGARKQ
proteins of U3A human fibrosarcoma cells (4462 proteins detected) (Homo sapiens, UniProt Q8TBZ3), sequence (Q8TBZ3 whole entry): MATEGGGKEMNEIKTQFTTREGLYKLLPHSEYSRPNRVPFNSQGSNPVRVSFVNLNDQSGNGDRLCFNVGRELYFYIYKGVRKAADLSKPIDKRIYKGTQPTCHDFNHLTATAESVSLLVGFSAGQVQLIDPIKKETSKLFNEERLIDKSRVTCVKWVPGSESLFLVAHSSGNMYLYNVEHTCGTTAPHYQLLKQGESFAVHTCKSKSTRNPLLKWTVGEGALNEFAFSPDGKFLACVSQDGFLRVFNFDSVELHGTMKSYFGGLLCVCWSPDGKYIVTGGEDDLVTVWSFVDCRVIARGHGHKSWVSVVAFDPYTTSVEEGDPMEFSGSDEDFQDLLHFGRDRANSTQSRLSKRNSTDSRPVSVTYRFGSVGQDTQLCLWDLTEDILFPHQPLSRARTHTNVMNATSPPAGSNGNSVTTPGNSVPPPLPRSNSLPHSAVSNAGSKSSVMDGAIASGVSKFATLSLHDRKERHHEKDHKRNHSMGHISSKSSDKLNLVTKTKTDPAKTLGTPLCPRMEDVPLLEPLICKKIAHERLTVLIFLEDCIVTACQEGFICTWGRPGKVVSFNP
proteins of U3A human fibrosarcoma cells (4462 proteins detected) (Homo sapiens, UniProt O43402), sequence (O43402 whole entry): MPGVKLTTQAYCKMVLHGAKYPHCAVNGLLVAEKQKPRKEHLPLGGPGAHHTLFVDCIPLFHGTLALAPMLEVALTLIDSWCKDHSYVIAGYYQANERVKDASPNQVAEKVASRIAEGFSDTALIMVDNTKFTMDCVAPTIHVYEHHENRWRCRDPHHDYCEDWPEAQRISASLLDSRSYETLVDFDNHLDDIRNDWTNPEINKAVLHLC
proteins of U3A human fibrosarcoma cells (4462 proteins detected) (Homo sapiens, UniProt P17987), sequence (P17987 whole entry): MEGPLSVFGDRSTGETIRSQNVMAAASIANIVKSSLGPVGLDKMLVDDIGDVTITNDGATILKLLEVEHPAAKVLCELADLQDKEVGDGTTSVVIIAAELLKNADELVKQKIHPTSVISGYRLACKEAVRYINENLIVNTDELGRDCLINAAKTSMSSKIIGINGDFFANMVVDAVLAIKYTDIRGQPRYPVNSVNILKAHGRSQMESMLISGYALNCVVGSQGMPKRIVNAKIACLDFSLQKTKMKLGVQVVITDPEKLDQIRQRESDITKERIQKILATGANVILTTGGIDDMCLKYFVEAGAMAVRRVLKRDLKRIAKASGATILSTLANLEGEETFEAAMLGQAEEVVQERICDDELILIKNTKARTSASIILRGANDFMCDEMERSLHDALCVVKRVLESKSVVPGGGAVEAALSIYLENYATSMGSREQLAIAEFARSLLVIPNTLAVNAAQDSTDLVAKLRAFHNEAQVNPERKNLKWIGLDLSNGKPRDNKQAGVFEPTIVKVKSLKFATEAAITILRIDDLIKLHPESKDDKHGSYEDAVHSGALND
proteins of U3A human fibrosarcoma cells (4462 proteins detected) (Homo sapiens, UniProt P26447), sequence (P26447 whole entry): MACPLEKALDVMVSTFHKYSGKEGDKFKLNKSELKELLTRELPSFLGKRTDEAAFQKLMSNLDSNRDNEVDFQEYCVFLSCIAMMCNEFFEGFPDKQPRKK
proteins of U3A human fibrosarcoma cells (4462 proteins detected) (Homo sapiens, UniProt Q9UBV8), sequence (Q9UBV8 whole entry): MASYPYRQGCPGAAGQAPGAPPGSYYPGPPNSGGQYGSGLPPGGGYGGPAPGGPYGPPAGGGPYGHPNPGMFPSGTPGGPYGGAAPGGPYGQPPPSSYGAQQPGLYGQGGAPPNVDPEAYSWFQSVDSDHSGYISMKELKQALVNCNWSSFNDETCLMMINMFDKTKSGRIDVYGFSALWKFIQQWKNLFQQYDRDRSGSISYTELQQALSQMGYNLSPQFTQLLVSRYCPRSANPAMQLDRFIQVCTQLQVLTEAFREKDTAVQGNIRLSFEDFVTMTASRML

Compound: CCc1nc(N)nc(N)c1-c1ccc(Cl)cc1 [pyrimethamine]
- Log2 (PYR/DMSO) [1]: 0.20
- Log2 (PYR/DMSO), PEF1 [2]: 0.24
- Log2 (PYR/DMSO) [3]: 0.13
- Log2 (PYR/DMSO) [4]: 0.22
- Log2 (PYR/DMSO) [5]: -0.05
- Log2 (PYR/DMSO) [6]: 0.19
- Log2 (PYR/DMSO) [7]: 0.15
- Log2 (PYR/DMSO) [8]: 0.16
- Log2 (PYR/DMSO), KIAA1598 [9]: -0.28
- Log2 (PYR/DMSO) [10]: 0.15
- Log2 (PYR/DMSO) [11]: 0.14
- Log2 (PYR/DMSO) [12]: 0.14
- Log2 (PYR/DMSO), S100A4 [13]: -0.16
- Log2 (PYR/DMSO) [14]: 0.15
- Log2 (PYR/DMSO) [15]: 0.19
- Log2 (PYR/DMSO) [16]: 0.14
- Log2 (PYR/DMSO) [17]: 0.17
- Log2 (PYR/DMSO) [18]: 0.17
- Log2 (PYR/DMSO) [19]: -0.04
- Log2 (PYR/DMSO), YKT6 [20]: 0.27
- Log2 (PYR/DMSO), EIF5A2 [21]: -0.18
- Log2 (PYR/DMSO) [22]: 0.16
- Log2 (PYR/DMSO) [23]: -0.04
- Log2 (PYR/DMSO) [24]: 0.16
- Log2 (PYR/DMSO) [25]: 0.17
- Log2 (PYR/DMSO) [26]: 0.18
- Log2 (PYR/DMSO) [27]: 0.21
- Log2 (PYR/DMSO) [28]: -0.04
- Log2 (PYR/DMSO) [29]: 0.16
- Log2 (PYR/DMSO) [30]: -0.05
